System: HT29 human cells
Assay: In vivo tumour volume, HT29 cells subcutaneously introduced into mice, 5-fluorouracil and deltonin
Set-up: species or system Balb/c nude female mice
Excerpt: 5-Fluorouracil (5FU) is the principal chemotherapeutic drug used in treating colon cancer; it is most commonly co-administered with other chemotherapeutic agents. This study compared the co-administration of 5-fluoruracil and deltonin, with administration of mono-administration of both 5-fluorourcil and deltonin.
72 female Balb/c nude female mice were microchipped, weighed and randomised based on body weight into 8 groups with 9 mice per group. […]
HT29 human […] carcinoma cells were cultured in RPMI1640 cell culture medium, which was supplemented with 10% FBS and penicillin-streptomycin (50 IU/mL final concentration). The cells were harvested by trypsinisation, washed twice in HBSS and counted. The cells were then resuspended in HBSS and adjusted to a final volume containing 2×10^7 cells/mL. For inoculation, the needle was introduced through the skin into the subcutaneous space just below the right shoulder, where 100 μL of cells (2×10^6) were discharged.
When the tumour volumes had reached an average of greater than 200 mm^3, treatment was started (Day 0). Tumour volumes were measured 3-times weekly, and determined according to the formula: V(mm^3)=length×diameter^2×π/6
Treatment was continued for 17 days. The mean tumour volumes for each dosage regime are given in Table 24 and are presented graphically in FIG. 1: […]

SMILES: C[C@@H]1CC[C@@]2(OC1)O[C@H]1C[C@H]3[C@@H]4CC=C5C[C@@H](O[C@@H]6O[C@H](CO)[C@@H](O[C@@H]7O[C@H](CO)[C@@H](O)[C@H](O)[C@H]7O)[C@H](O)[C@H]6O[C@@H]6O[C@@H](C)[C@H](O)[C@@H](O)[C@H]6O)CC[C@]5(C)[C@H]4CC[C@]3(C)[C@H]1[C@@H]2C [Deltonin, diosgenin Rha2, [Glc4], Glc]
- Mean tumour volume (Deltonin 1.65 mg/kg daily, Day 0): 236 mm^3
- Mean tumour volume (Deltonin 1.65 mg/kg daily, Day 2): 260 mm^3
- Mean tumour volume (Deltonin 1.65 mg/kg daily, Day 4): 299 mm^3
- Mean tumour volume (Deltonin 1.65 mg/kg daily, Day 7): 294 mm^3
- Mean tumour volume (Deltonin 1.65 mg/kg daily, Day 9): 350 mm^3
- Mean tumour volume (Deltonin 1.65 mg/kg daily, Day 11): 462 mm^3
- Mean tumour volume (Deltonin 1.65 mg/kg daily, Day 14): 594 mm^3
- Mean tumour volume (Deltonin 1.65 mg/kg daily, Day 16): 644 mm^3
- Mean tumour volume (Deltonin 1.65 mg/kg daily, Day 18): 776 mm^3
- Mean tumour volume (Deltonin 3.3 mg/kg daily, Day 0): 236 mm^3
- Mean tumour volume (Deltonin 3.3 mg/kg daily, Day 2): 242 mm^3
- Mean tumour volume (Deltonin 3.3 mg/kg daily, Day 4): 271 mm^3
- Mean tumour volume (Deltonin 3.3 mg/kg daily, Day 7): 331 mm^3
- Mean tumour volume (Deltonin 3.3 mg/kg daily, Day 9): 413 mm^3
- Mean tumour volume (Deltonin 3.3 mg/kg daily, Day 11): 489 mm^3
- Mean tumour volume (Deltonin 3.3 mg/kg daily, Day 14): 558 mm^3
- Mean tumour volume (Deltonin 3.3 mg/kg daily, Day 16): 742 mm^3
- Mean tumour volume (Deltonin 3.3 mg/kg daily, Day 18): 842 mm^3
- Mean tumour volume (Deltonin 6.6 mg/kg daily, Day 0): 235 mm^3
- Mean tumour volume (Deltonin 6.6 mg/kg daily, Day 2): 233 mm^3
- Mean tumour volume (Deltonin 6.6 mg/kg daily, Day 4): 265 mm^3
- Mean tumour volume (Deltonin 6.6 mg/kg daily, Day 7): 310 mm^3
- Mean tumour volume (Deltonin 6.6 mg/kg daily, Day 9): 399 mm^3
- Mean tumour volume (Deltonin 6.6 mg/kg daily, Day 11): 490 mm^3
- Mean tumour volume (Deltonin 6.6 mg/kg daily, Day 14): 588 mm^3
- Mean tumour volume (Deltonin 6.6 mg/kg daily, Day 16): 671 mm^3
- Mean tumour volume (Deltonin 6.6 mg/kg daily, Day 18): 692 mm^3
